Patent US20250120960A1, “Compositions and Methods for Treatment of Inflammatory Bowel Disease” (Nocion Therapeutics, Inc., priority 2022, published 2025)

Columns and labels:
[1] = Pharmacokinetic (PK) analysis of terminal plasma and colon samples in DSS mice; type: in vivo; details: 100 mg/kg QD PO
Method: (§1) Body weights, stool consistency and the presence of blood in the stool were measured over the 6 days and comprised the Disease Activity Index (DAI). On day 7 the study was terminated, and the colon and plasma were collected for cytokine measurements, histology evaluation and for pharmacokinetic (PK) analysis.

[2] = tested on: DSS mouse model of ulcerative colitis; experiment: DSS mouse model of ulcerative colitis: Disease Activity Index, plasma and colon cytokines, colon histopathology; type: in vivo, mice; details: for amount of crypt damage (colon histopathology) / colon IL-15 level increased by DSS / colon KC level increased by DSS / colon RANTES level increased by DSS / degree of inflammatory infiltrate (colon histopathology) / layer to which the infiltration extended (extent of infiltration, colon histopathology): colon collected day 7; for improvement (reduction) in the Disease Activity Index (DAI): mice given 2.5% DSS in drinking water for 6 days, NTX 1170 100 mg/kg QD PO, infliximab 5 mg/kg QD IP, tofacitinib 5 mg/kg BID PO
Method: as §1

[3] = plasma collected day 7, 2.5% DSS 6 days

Row | Compound | Kp ([1]; mouse, colon and plasma, terminal samples, read-out: colon/plasma ratio) | level of compound in the colon ([1]; terminal colon sample) | level of compound in the plasma ([1]; terminal plasma sample) | amount of crypt damage (colon histopathology) ([2]; 2.5% DSS 6 days) | colon IL-15 level increased by DSS ([2]; 2.5% DSS 6 days) | colon KC level increased by DSS ([2]; 2.5% DSS 6 days) | colon RANTES level increased by DSS ([2]; 2.5% DSS 6 days) | degree of inflammatory infiltrate (colon histopathology) ([2]; 2.5% DSS 6 days) | layer to which the infiltration extended (extent of infiltration, colon histopathology) ([2]; 2.5% DSS 6 days) | improvement (reduction) in the Disease Activity Index (DAI) [2] [%] | plasma G-CSF level upregulated by DSS [2, 3] | plasma IP-10 level upregulated by DSS [2, 3] | plasma MIG level upregulated by DSS [2, 3] | plasma Mip-1β level upregulated by DSS [2, 3] | plasma TNF-α level upregulated by DSS [2, 3]
1 | Cc1cccc(C)c1NC(=O)C[N+]1(Cc2ccccc2)CCCCC1.[Br-] [NTX-1170] | > 3500 | high levels | very low levels | significantly reduced | significantly reduced | significantly reduced | significantly reduced | significantly reduced | significantly reduced | 60 | significantly reduced | significantly reduced | significantly reduced | significantly reduced | significantly reduced
2 | C[C@@H]1CCN(C(=O)CC#N)C[C@@H]1N(C)c1ncnc2[nH]ccc12 [tofacitinib] | – | – | – | – | neither tofacitinib nor infliximab significantly reduced | neither tofacitinib nor infliximab significantly reduced | neither tofacitinib nor infliximab significantly reduced | – | reduced | 38 | significantly reduced | – | significantly reduced | significantly reduced | significantly reduced
3 | infliximab | – | – | – | no significant effect | neither tofacitinib nor infliximab significantly reduced | neither tofacitinib nor infliximab significantly reduced | neither tofacitinib nor infliximab significantly reduced | no significant effect | no significant effect | – | reduced | – | – | reduced | reduced
